The results in this text go back to patent US6465433B1, “Boronic ester and acid compounds, synthesis and uses” (Millennium Pharmaceuticals, Inc., priority 1994, dated 2002).

In general, Ki refers to a measure of affinity in units of concentration, obtained from inhibition or displacement. Broadly, the IC50 is the point on the concentration scale where inhibition reaches its midpoint.

Where a SMILES comes first, the peptide text is derived from it. The star is where a group is joined. Cbz = O=C(OCc1ccccc1)*

Experiment [1] addresses SDS-activated 20S proteasome from rabbit muscle (Oryctolagus cuniculus, UniProt G1SU71+G1T4Q9). The experiment is described as follows: Kinetic assay: inhibition of the 20S proteasome. The experiment is classed as biochemical. The protocol:
(§1) P, AA^1, AA^2, AA^3, and Z^1 and Z^2 represent the structures present on formula (1) or (2). The protocol for the kinetic assay described in Tables II-V is as described in Rock et al., Cell 78:761-771 (1994). In these tables, Ki values are reported, which are dissociation constants for the equilibrium that is established when enzyme and inhibitor interact to form the enzyme:inhibitor complex. The reactions were performed using SDS-activated 20S proteasome from rabbit muscle. The substrate used was Suc-LLVY-AMC.

The target in experiment [2] is Cathepsin B (Homo sapiens, UniProt P07858). The experiment is described as follows: Kinetic assay: inhibition of Cathepsin B. The experiment is classed as biochemical. Conditions: Table IV.
Text: [Worded in the source for another target; this target is reported under the same test.] as §1, with “Table II summarizes results from kinetic experiments that measured the inhibition of the 20S proteasome by compounds having the formula of compound (1) or (2). P,” for “P,”

Experiment [3] relates to C2C12 cells. As to the kind of experiment: Inhibition of protein degradation in C2C12 cells. The experiment is classed as cell-based, mouse. Conditions: 35S-methionine labelled cells, percent decrease in TCA soluble radioactivity, media with 50% serum. On the procedure: One approach to testing drug candidates for their ability to inhibit the ATP-ubiquitin-dependent degradative process is to measure proteolysis in cultured cells (Rock, et al., Cell 78:761 (1994)). For example, the degradation of long-lived intracellular proteins can be measured in mouse C2C12 myoblast cells. Cells are incubated with ^35S-methionine for 48 hours to label long-lived proteins and then chased for 2 hours with medium containing unlabeled methionine. After the chase period, the cells are incubated for 4 hours in the presence or absence of the test compound. The amount of protein degradation in the cell can be measured by quantitating the trichloroacetic acid soluble radioactivity released from the pre-labeled proteins into the growth medium (an indicator of intracellular proteolysis).
C2C12 cells (a mouse myoblast line) were labelled for 48 hrs with ^35S-methionine. The cells were then washed and preincubated for 2 hrs in the same media supplemented with 2 mM unlabelled methionine. The media was removed and replaced with a fresh aliquot of the preincubation media containing 50% serum, and a concentration of the compound to be tested. The media was then removed and made up to 10% TCA and centrifuged. The TCA soluble radioactivity was counted. Inhibition of proteolysis was calculated as the percent decrease in TCA soluble radioactivity.

Where [4] appears, read: Table II, SDS-activated 20S proteasome from rabbit muscle, substrate Suc-LLVY-AMC.

As to `CC(=O)N[C@@H](CC(C)C)C(=O)N[C@@H](CC(C)C)C(=O)N[C@H](C=O)CC(C)C` [MG-154, reference compound] (Ac-Leu-Leu-Leu-aldehyde), the Ki in experiment [1] (Table IV) was found to be 66 nM; in experiment [2], 5 nM.
With `CC(C)CC(C=O)NC(=O)C(CC(C)C)NC(=O)C(Cc1c[nH]c2ccccc12)NC(=O)OCc1ccccc1` (stereo not drawn) [MG-191, reference compound] (Cbz-Trp-Leu-Leu-aldehyde; configuration not given here), the Ki in experiment [1] (Table IV) stood at 0.38 nM; in experiment [2] it was 0.54 nM.
Turning to `CC(C)C[C@H](NC(=O)[C@H](Cc1cccc2ccccc12)NC(=O)N1CCOCC1)B(O)O` [MG-273, N-(4-Morpholine)carbonyl-β-(1-naphthyl)-L-alanine-L-leucine Boronic Acid], the IC50 in experiment [3] (Mus musculus, C2C12) was 140 nM. For the same compound, the Ki in experiment [1] (setting [4]) amounted to 0.18 nM; in experiment [1] (Table IV), 0.18 nM; in experiment [2] it was 200000 nM.
For the compound `CC(=O)N[C@@H](Cc1cccnc1)C(=O)N[C@@H](CC(C)C)B(O)O` [MG-290], in experiment [3], the IC50 came out at 10200 nM. The compound further had a Ki in experiment [1] (setting [4]) of 5.4 nM.
Regarding `CC(C)CC(NC(=O)C(Cc1ccc2ncccc2c1)NC(=O)N1CCOCC1)B(O)O` [MG-292, N-(4-Morpholine)carbonyl-β-(6-quinolinyl)-D, L-alanine-L-leucine Boronic Acid], in experiment [3] (Mus musculus, C2C12), the IC50 is 11300 nM. This compound yielded a Ki in experiment [1] (setting [4]) of 6 nM.
For `CC(C)C[C@H](NC(=O)[C@H](Cc1cccc2ccccc12)NC(=O)c1ccc2ccccc2n1)B(O)O` [MG-298], the IC50 in experiment [3] is 230 nM. Further, in experiment [1] (setting [4]), the Ki worked out at 0.075 nM.
`CC(C)C[C@H](NC(=O)[C@H](Cc1cccc2ccccc12)NC(=O)c1cnc2ccccc2n1)B(O)O` [MG-299]: the IC50 in experiment [3] is 280 nM. Besides, the affinity in experiment [1] (setting [4]) corresponds to a Ki of 0.14 nM.
Taken in the same sequence, the figures for `CC(=O)N[C@@H](Cc1c[nH]c2ccccc12)C(=O)N[C@@H](CC(C)C)B(O)O` [MG-301] were 1300 nM and 1.3 nM.
Regarding `CC(C)C[C@H](NC(=O)[C@H](Cc1ccc(OCc2ccccc2)cc1)NC(=O)N1CCOCC1)B(O)O` [MG-306, N-(4-Morpholine)carbonyl-(O-benzyl)-L-tyrosine-L-leucine Boronic Acid], the IC50 in experiment [3] (Mus musculus, C2C12) is 130 nM. Also, the Ki in experiment [1] (setting [4]) stood at 0.23 nM.
For `CC(C)C[C@H](NC(=O)[C@H](Cc1ccc(O)cc1)NC(=O)N1CCOCC1)B(O)O` [MG-307, N-(4-morpholine)carbonyl-L-tyrosine-L-leucine boronic acid], the IC50 in experiment [3] worked out at 4800 nM. Also, the Ki in experiment [1] (setting [4]) is 0.51 nM.
Consider `CC(C)CC(NC(=O)C(Cc1ccc2ccccc2c1)NC(=O)N1CCOCC1)B(O)O` (stereo not shown) [MG-308], for which the IC50 in experiment [3] was 96 nM. The Ki in experiment [1] (setting [4]) stood at 0.72 nM.
Taken in the same sequence, the figures for `CC(C)C[C@H](NC(=O)[C@H](Cc1ccccn1)NC(=O)N1CCOCC1)B(O)O` [MG-312] were 1100 nM and 6.3 nM.
Taken in the same sequence, the figures for `CC(C)C[C@H](NC(=O)[C@H](Cc1ccccc1)NC(=O)c1ccc2ccccc2n1)B(O)O` [MG-314] were 130 nM and 0.19 nM.
`CC(C)C[C@H](NC(=O)[C@H](Cc1ccc2ccccc2n1)NC(=O)N1CCOCC1)B(O)O` [MG-315, N-(4-Morpholine)carbonyl-β-(2-quinolyl)-L-alanine-L-leucine Boronic Acid]: the IC50 in experiment [3] (Mus musculus, C2C12) is 340 nM. The same compound yielded a Ki in experiment [1] (setting [4]) of 2.2 nM.
Taken in the same sequence, the figures for `CC(C)C[C@H](NC(=O)[C@@H]1Cc2ccccc2CN1)B(O)O` [MG-316] were 21000 nM and 22 nM.
For `CC(C)C[C@H](NC(=O)[C@@H]1CCCN1)B(O)O` [MG-319], in that order: 14000 nM and 20 nM.
Regarding `O=C(NC(Cc1ccccc1)B(O)O)C(Cc1cccc2ccccc12)NC(=O)N1CCOCC1` (stereo not shown) [MG-321], the IC50 in experiment [3] is 2400 nM. For the same compound, the Ki in experiment [1] (setting [4]) is 0.32 nM.
Taken in the same sequence, the figures for `CC(C)CC(NC(=O)C(CCc1ccccc1)NC(=O)N1CCOCC1)B(O)O` (stereo not shown) [MG-322] were 380 nM and 2.2 nM.
For `CC(C)C[C@H](NC(=O)[C@H](CCc1ccccc1)NC(=O)c1ccc2ccccc2n1)B(O)O` [MG-325, N-(2quinoline)carbonyl-L-homophenylalanine-L-leucine boronic acid], the IC50 in experiment [3] (Mus musculus, C2C12) worked out at 1100 nM. In experiment [1] (setting [4]), this compound gave a Ki of 2.8 nM.
In the case of `CC(C)C[C@H](NC(=O)[C@H](Cc1cccc2ccccc12)NC(=O)c1ccccc1)B(O)O` [MG-328], in experiment [3], the IC50 came to 69 nM. In experiment [1] (setting [4]), this compound displayed a Ki of 0.088 nM.
As for `CC(C)C[C@H](NC(=O)[C@H](Cc1cccc2ccccc12)NC(=O)C1CCCCC1)B(O)O` [MG-329], the IC50 in experiment [3] was 48 nM. This compound yielded a Ki in experiment [1] (setting [4]) of 0.03 nM.
Consider `CN[C@@H](Cc1cccc2ccccc12)C(=O)N[C@@H](CC(C)C)B(O)O` [MG-333], for which the IC50 in experiment [3] (Mus musculus, C2C12) is 220 nM. In experiment [1] (setting [4]), the Ki amounted to 2.1 nM.
For `CC(C)C[C@H](NC(=O)[C@H](Cc1ccccc1)NC(=O)c1cccnc1)B(O)O` [MG-336, N-(3-pyridine)carbonyl-L-phenylalanine-L-leucine boronic acid], in that order: 100 nM and 0.25 nM.
Regarding `CC(C)C[C@H](NC(=O)[C@H](Cc1ccccc1)NC(=O)c1ccccn1)B(O)O` [MG-343], the IC50 in experiment [3] was 57 nM. Also, the affinity in experiment [1] (setting [4]), expressed as Ki, was 0.42 nM.
Taken in the same sequence, the figures for `CC(C)C[C@H](NC(=O)[C@H](Cc1ccccn1)NC(=O)c1ccccc1)B(O)O` [MG-345] were 120 nM and 0.76 nM.
For `CC(C)C[C@H](NC(=O)[C@H](Cc1ccccn1)NC(=O)C1CCCCC1)B(O)O` [MG-346], in that order: 150 nM and 1.1 nM.
As to `CC(C)C[C@H](NC(=O)[C@H](Cc1ccccn1)NS(=O)(=O)c1cccc2cccnc12)B(O)O` [MG-347], in experiment [3], the IC50 is 13000 nM. Besides, affinity in experiment [1] (setting [4]) was put at a Ki of 29 nM.
For the compound `CC(C)C[C@H](NC(=O)[C@H](Cc1ccccc1)NC(=O)NCc1ccccc1)B(O)O` [MG-350], in experiment [3], the 50% inhibitory concentration (IC50) came out at 160 nM. The Ki in experiment [1] (setting [4]) was found to be 0.14 nM.
For `CC(C)C[C@H](NC(=O)[C@@H](N)Cc1ccccn1)B(O)O` [MG-351], in that order: 8100 nM and 32 nM.
For the compound “N-Cbz-L-Leucine-L-leucine Boronic Acid [MG-274]”, the IC50 in experiment [3] was 340 nM. The Ki in experiment [1] (setting [4]) is 3 nM; in experiment [1] (Table III, dipeptide boronic acid vs dipeptide aldehyde) it was 3 nM.
As to “β-(1-Naphthyl)-L-alanine-L-leucine Boronic Acid Hydrochloride Salt [MG-302]”, in experiment [3], the IC50 came out at 270 nM. This compound came in with a Ki in experiment [1] (setting [4]) of 7.5 nM.
Taken in the same sequence, the figures for “β-(1-Naphthyl)-L-alanine-L-leucine Boronic Acid [MG-303]” were 340 nM and 3.9 nM.
